The values below come from patent publication US20240409594A1, “PHOTOA[…] CHANNEL MODULATOR” (INSTITUT NATIONAL DE LA SANTÉ ET DE LA RECHERCHE MÉDICALE, priority 2021, published 2024).

What is called IC50 is the midpoint of a concentration-inhibition curve. One may read the Kd as a measure of binding affinity in units of concentration. In general, Ki refers to a measure of affinity in units of concentration, obtained from inhibition or displacement.

In data set [1] the target is human NaV1.6 channel (human) (UniProt Q9UQD0). Briefly: cell-based or functional assay.
The target of data set [2] is human NaV1.2 channel (human) (UniProt Q99250). Nature of the data set: cell-based or functional assay.
For data set [3], the target named is human NaV1.1 channel (human) (UniProt P35498). Briefly: cell-based or functional assay.
In data set [4] the target is KCa1.1/KCNMA1 (Homo sapiens, UniProt Q12791). Conditions: cited from earlier work.
The target of data set [5] is Kv1.5/KCNA5 (Homo sapiens, UniProt P22460). Conditions: cited from earlier work.
For data set [6], the target named is shaker (Drosophila melanogaster, UniProt P08510). Conditions: cited from earlier work.
For data set [7], the target named is Kv1.3/KCNA3 (Homo sapiens, UniProt P22001). Conditions: cited from earlier work.
Data set [8] deals with Kv1.2/KCNA2 (Homo sapiens, UniProt P16389). Conditions: cited from earlier work.
Data set [9] deals with Kv1.6/KCNA6 (Homo sapiens, UniProt P17658). Conditions: cited from earlier work.
Data set [10] relates to nicotinic acetylcholine receptors (nAChR). Conditions: cited from earlier work.
The target in data set [11] is hERG (Homo sapiens, UniProt Q12809). Briefly: Automated patch-clamp with photocontrol, hERG current in CHO cells. Conditions: 100 nM; 365 nm, 45 mW/cm^2. (The patch-clamp technique gives a direct electrical read-out from membranes.)
hERG, sequence (Q12809 whole entry): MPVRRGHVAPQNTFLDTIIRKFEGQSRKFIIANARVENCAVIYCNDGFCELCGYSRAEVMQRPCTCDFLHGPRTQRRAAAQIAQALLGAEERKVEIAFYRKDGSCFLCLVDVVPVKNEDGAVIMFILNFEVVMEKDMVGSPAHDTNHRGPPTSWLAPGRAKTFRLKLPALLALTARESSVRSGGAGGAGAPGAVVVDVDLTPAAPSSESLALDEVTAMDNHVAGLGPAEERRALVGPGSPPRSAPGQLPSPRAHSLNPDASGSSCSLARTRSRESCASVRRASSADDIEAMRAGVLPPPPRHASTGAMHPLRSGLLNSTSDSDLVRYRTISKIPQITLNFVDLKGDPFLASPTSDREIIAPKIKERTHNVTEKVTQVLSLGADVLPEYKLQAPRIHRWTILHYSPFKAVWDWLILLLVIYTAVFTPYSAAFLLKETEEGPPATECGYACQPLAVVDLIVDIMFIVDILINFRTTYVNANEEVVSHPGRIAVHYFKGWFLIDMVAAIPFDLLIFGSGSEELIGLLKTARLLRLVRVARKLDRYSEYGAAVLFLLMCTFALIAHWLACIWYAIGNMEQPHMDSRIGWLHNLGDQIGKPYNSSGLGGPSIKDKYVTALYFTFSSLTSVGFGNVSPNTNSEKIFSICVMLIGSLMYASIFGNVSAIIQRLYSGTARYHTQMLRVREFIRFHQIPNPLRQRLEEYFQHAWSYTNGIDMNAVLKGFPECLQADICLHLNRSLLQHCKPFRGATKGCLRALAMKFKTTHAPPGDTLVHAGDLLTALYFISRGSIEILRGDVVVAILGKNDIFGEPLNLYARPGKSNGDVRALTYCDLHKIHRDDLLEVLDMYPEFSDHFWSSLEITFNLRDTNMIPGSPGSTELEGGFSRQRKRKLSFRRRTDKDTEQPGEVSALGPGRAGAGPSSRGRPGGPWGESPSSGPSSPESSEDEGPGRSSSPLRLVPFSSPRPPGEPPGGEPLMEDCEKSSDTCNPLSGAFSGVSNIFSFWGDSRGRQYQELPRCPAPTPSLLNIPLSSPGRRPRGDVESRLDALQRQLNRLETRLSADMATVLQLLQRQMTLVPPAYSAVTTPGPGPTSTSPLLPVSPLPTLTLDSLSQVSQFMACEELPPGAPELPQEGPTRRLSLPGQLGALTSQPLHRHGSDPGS
In data set [12] the target is T1, hNaV1.6 (Homo sapiens, UniProt Q9UQD0).
T1 construct: expressed in transfected cells
T1 sequence (Q9UQD0 whole entry): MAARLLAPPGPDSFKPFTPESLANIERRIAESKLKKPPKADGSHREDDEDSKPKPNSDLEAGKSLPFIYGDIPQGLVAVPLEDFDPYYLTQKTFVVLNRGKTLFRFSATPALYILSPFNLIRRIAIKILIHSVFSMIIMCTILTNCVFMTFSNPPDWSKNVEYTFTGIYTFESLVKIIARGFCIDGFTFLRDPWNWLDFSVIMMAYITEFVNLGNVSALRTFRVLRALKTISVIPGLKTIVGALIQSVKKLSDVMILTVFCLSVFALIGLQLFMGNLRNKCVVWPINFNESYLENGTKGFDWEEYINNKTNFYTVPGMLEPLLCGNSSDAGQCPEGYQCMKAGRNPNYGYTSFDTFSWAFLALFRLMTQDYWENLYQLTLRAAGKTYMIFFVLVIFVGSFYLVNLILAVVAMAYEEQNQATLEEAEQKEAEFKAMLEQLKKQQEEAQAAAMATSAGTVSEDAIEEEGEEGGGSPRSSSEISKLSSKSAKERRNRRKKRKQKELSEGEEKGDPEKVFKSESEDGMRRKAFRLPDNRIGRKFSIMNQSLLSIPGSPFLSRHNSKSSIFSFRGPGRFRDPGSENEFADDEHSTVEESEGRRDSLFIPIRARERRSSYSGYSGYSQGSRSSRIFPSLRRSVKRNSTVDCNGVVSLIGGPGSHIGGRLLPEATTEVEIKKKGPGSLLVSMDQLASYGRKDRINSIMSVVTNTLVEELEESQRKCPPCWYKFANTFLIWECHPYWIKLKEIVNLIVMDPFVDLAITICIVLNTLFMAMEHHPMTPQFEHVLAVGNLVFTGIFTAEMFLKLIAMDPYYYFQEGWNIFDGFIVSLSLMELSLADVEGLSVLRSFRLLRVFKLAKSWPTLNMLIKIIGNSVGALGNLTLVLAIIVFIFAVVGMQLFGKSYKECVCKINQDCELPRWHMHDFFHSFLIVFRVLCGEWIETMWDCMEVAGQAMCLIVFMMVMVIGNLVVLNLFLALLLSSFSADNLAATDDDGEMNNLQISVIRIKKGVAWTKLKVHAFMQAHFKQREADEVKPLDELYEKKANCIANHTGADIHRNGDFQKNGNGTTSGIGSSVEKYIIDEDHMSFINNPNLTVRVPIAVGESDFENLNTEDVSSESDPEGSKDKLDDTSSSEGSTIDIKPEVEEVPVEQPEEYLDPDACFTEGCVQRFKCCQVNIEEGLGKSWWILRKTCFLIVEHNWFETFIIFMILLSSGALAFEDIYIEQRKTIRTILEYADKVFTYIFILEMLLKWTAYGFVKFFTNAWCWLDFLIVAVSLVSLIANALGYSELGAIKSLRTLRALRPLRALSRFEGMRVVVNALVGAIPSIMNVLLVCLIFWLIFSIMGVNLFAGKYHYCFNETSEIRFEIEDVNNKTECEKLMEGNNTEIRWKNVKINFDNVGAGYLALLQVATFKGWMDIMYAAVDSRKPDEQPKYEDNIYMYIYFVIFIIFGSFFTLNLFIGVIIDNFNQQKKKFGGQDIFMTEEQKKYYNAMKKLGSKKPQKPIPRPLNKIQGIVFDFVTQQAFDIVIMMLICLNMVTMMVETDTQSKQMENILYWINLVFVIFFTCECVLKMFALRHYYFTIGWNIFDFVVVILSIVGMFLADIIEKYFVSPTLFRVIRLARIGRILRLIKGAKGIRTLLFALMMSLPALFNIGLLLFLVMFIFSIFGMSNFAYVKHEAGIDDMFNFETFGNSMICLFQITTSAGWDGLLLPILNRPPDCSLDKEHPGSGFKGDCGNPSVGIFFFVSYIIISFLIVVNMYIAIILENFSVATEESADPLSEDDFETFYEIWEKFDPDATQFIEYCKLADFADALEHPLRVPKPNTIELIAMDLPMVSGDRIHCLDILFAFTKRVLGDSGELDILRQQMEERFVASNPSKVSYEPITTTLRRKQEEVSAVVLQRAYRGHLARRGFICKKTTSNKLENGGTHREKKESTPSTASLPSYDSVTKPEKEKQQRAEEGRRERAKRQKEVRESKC
Nature of the data set: Automated patch-clamp and photoactivation, hNaV1.6 current in HEK293 cells. It counts as cell-based.

Data set [13] deals with T2, KV1.2 (Homo sapiens, UniProt P16389).
T2 construct: expressed in transfected cells; host or cells: CHO (transient)
Nature of the data set: Automated patch-clamp with photocontrol, KV1.2 current in CHO cells. Format: cell-based. Conditions: 100 nM; 365 nm, 45 mW/cm^2.

Data set [14] has as its system zebrafish larvae. Briefly: Zebrafish larvae paralysis model. Format: in vivo. Conditions: injected, then illumination.
For data set [15], the target named is T3, hNaV1.2 (Homo sapiens, UniProt Q99250).
T3 construct: expressed in transfected cells
T3 sequence (Q99250 whole entry): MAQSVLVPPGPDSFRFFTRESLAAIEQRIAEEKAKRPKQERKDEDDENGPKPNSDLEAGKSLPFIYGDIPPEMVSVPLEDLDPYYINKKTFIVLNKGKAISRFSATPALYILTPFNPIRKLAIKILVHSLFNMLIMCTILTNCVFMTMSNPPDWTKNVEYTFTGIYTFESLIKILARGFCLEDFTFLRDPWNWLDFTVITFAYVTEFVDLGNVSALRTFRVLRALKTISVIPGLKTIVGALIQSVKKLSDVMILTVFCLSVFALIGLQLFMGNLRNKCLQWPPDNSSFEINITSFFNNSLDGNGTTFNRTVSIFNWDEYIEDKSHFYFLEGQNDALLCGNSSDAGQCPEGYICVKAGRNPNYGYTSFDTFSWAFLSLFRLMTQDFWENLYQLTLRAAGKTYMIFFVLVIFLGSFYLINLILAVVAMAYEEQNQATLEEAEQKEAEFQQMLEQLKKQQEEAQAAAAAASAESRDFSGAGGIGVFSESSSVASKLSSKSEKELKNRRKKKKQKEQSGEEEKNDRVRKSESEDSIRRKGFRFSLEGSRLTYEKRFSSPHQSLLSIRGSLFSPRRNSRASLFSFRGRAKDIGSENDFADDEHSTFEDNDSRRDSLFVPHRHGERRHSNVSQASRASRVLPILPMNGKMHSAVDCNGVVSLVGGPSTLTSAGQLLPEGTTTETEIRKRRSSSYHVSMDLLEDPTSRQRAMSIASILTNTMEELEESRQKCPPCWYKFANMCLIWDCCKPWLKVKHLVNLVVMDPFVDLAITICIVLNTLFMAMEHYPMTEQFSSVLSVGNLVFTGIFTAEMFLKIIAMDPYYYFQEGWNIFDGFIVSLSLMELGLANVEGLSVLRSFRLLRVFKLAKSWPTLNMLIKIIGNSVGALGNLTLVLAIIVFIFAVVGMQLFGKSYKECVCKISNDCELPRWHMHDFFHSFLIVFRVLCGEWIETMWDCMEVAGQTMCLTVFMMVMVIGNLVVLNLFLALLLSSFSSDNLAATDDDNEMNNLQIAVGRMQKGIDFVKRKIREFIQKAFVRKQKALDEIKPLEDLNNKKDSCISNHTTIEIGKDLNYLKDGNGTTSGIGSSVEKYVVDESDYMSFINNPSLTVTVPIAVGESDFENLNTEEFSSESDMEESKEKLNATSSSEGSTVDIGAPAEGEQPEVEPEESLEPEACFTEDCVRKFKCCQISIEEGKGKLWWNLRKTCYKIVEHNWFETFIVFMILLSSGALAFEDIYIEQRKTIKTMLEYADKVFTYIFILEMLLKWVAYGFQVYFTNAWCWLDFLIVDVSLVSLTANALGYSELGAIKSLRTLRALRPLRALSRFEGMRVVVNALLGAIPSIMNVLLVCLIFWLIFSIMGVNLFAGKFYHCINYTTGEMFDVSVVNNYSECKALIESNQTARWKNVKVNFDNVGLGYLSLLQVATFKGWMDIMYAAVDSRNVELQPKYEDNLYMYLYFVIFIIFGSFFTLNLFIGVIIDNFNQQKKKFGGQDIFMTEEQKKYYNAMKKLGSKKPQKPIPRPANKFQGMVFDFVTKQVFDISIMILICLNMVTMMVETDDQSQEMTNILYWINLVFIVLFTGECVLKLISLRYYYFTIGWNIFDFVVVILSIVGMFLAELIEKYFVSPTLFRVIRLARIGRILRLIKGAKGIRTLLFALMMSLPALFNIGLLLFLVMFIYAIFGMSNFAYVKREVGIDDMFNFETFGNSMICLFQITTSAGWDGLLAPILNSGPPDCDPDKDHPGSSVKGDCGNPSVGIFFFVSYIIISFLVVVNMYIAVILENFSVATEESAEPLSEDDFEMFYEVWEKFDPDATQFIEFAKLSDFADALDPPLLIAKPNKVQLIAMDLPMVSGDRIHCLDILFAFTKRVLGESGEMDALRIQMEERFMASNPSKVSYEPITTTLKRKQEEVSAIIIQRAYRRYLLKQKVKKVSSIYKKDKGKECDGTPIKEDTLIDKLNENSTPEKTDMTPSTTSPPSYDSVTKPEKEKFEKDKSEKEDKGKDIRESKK
Briefly: Automated patch-clamp and photoactivation, hNaV1.2 current in HEK293 cells. Format: cell-based. Conditions: 1 nM, 365 nm, 45 mW/cm^2.

In [1], “HwTxIV analog (HwTxIVG^1G^4K^36) (peptide)” showed an IC50 of NaV1.6 current inhibition of 22.4 nM. Besides, in data set [2], the IC50 of hNaV1.2 current inhibition is 3.23 nM. Besides, the IC50 of hNaV1.1 current inhibition in [3] stood at 3.6 nM.
For “QFTNVSCTTSKECWSVCQRLHNTSRGKCMNKKCRCYS [Charybdotoxin]”, the IC50 in data set [4] was 5.9 nM. For the same compound, the dissociation constant (Kd) in data set [5] is greater than 100 nM. Further, the Ki in data set [6] is 227 nM; in data set [9] it was 22 nM. In [7], the “Inhibition of Kv1.3/KCNA3” value is “nanomolar range”. The “Inhibition of Kv1.2/KCNA2” value in data set [8] is “nanomolar range”. Also, the “Interaction with nicotinic acetylcholine receptors” value in [10] is “weak interaction”.
Turning to “BeKm1-Nvoc: BeKm1 (hERG blocker) caged with a Nvoc protecting group (RPTDIKCSESYQCFPVCKSRFGKTNGRCVNGFCDCF)”, the “UV-dependent effect on hERG current after uncaging” value in [11] is on record as “block”. Besides, the “Effect of Nvoc photolysis by-product on NaV1.6” value in data set [12] (by-product from uncaging 100 nM, negative control) is recorded as “inert”.
Take charybdotoxin-Nvoc: in data set [13], the “UV-dependent effect on KV1.2 current after uncaging” value was “block”.
Turning to “AaHII-R^62K-Nvoc: Nvoc-grafted analogue of AaHII wherein Arg62 was replaced by Lys62”, in data set [14], the “Paralysis of zebrafish larvae after illumination” value is “paralysis in all larvaes”. The entries for the “UV-dependent effect on hNaV1.2 current after uncaging” value in data set [15] and in [15] (listed as AaHIIR^62K-Nvoc) were “slowing of inactivation” and “activation”, respectively.
Turning to `CC[C@H](C)[C@@H]1NC(=O)CNC(=O)[C@H](CC(C)C)NC(=O)[C@@H](NC(=O)CN)CSSC[C@@H]2NC(=O)[C@@H]3CSSC[C@@H](C(=O)N[C@@H](CCCCN)C(=O)N[C@@H](Cc4ccc(O)cc4)C(=O)N[C@@H](CCC(N)=O)C(=O)N[C@H](C(=O)N[C@@H](CCCCN)C(N)=O)[C@@H](C)CC)NC(=O)[C@H](Cc4c[nH]c5ccccc45)NC(=O)[C@H](CCCNC(=N)N)NC(=O)[C@H]([C@@H](C)O)NC(=O)[C@H](CCCCN)NC(=O)[C@H](CCCNC(=N)N)NC(=O)[C@H](CO)NC(=O)[C@H](CSSC[C@H](NC(=O)[C@H](C)NC(=O)[C@H](CCCCN)NC(=O)[C@H](Cc4ccccc4)NC1=O)C(=O)N[C@@H](CC(N)=O)C(=O)N1CCC[C@H]1C(=O)N[C@@H](CO)C(=O)N[C@@H](CC(N)=O)C(=O)N[C@@H](CC(=O)O)C(=O)N[C@@H](CCC(N)=O)C(=O)N3)NC(=O)[C@H](C(C)C)NC(=O)[C@H](CC(C)C)NC(=O)[C@H](CCCCN)NC(=O)[C@H](CO)NC(=O)[C@H](CO)NC(=O)[C@H](CCCCN)NC2=O` [uncaged HwTxIV-Nvoc], in data set [12] (FIG. 2a / FIG. 3f series, caged vs non-caged vs uncaged, holding −100 mV, read-out: IC50 NaV1.6 current inhibition), the IC50 stood at 15.2 nM.
